Assay results published in patent publication US20050019746A1, “Apoptosis-related kinase/GPCRs” (EiRx Therapeutics Limited, priority 2003, published 2005).

What was measured:
Assay type in all cases: cell-based, human
SKOV3 cells = experiment: 10-14 day Clonagenicity Assay (MTT), SKOV3; details: for percentage survival relative to the missense, n = 1: independent experiment n = 1, dilution point of maximum toxicity; for percentage survival relative to the missense, n = 2: independent experiment n = 2, dilution point of maximum toxicity; for percentage survival relative to the missense, n = 3: independent experiment n = 3, dilution point of maximum toxicity
Summary of the method: (§1)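 siRNA knockdown at 2 μg/ml (4 h transfection) in serially halved seed densities; cells grown 10-14 d at 37 °C, 5% CO2, then counted by MTT conversion. Values: mean % survival vs missense oligo at the dilution giving maximum toxicity.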

HCT15 cells = experiment: 10-14 day Clonagenicity Assay (MTT), HCT15; details: for percentage survival relative to the missense, n = 1: independent experiment n = 1, dilution point of maximum toxicity; for percentage survival relative to the missense, n = 2: independent experiment n = 2, dilution point of maximum toxicity
Summary of the method: as §1

A549 cells = experiment: 10-14 day Clonagenicity Assay (MTT), A549; details: for percentage survival relative to the missense, n = 1: independent experiment n = 1, dilution point of maximum toxicity; for percentage survival relative to the missense, n = 3: independent experiment n = 3, dilution point of maximum toxicity
Summary of the method: as §1

U251 cells = experiment: 10-14 day Clonagenicity Assay (MTT), U251; details: U251, clonagenicity assay, dilution point of maximum toxicity; for percentage survival relative to the missense, n = 1: independent experiment n = 1; for percentage survival relative to the missense, n = 3: independent experiment n = 3; for percentage survival relative to the missense, n = 2: independent experiment n = 2
Summary of the method: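 U251 cells were seeded in a 96-well plate, left overnight to adhere at 37° C. in humidified 5% CO2, and serially diluted 1 in 2 from Column 1 to 6. They were transfected for 4 hrs with siRNA oligomers at 2 μg/ml, given fresh medium, changed again at 24 hrs, then incubated 10-14 days with weekly renewal. MTT conversion measured cell number; survival was expressed versus missense control.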

A498 cells = experiment: 10-14 day Clonagenicity Assay (MTT), A498; details: for percentage survival relative to the missense, n = 1: independent experiment n = 1, dilution point of maximum toxicity; for percentage survival relative to the missense, n = 3: independent experiment n = 3, dilution point of maximum toxicity
Summary of the method: as §1

DU145 cells = experiment: 10-14 day Clonagenicity Assay (MTT), DU145; details: for percentage survival relative to the missense, n = 3: independent experiment n = 3, dilution point of maximum toxicity; for percentage survival relative to the missense, n = 2: independent experiment n = 2, dilution point of maximum toxicity
Summary of the method: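 Seeded at cell-line-optimised densities, 1:2 serial dilution over six columns; siRNA oligos transfected at 2 μg/ml for 4 h, media changed overnight and at 24 h, then grown 10-14 days at 37° C before MTT read-out. Value is mean % viability vs missense control at the maximum-toxicity dilution, 3 experiments.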

Substance | percentage survival relative to the missense, n = 1 (SKOV3 cells) [%] | percentage survival relative to the missense, n = 1 (HCT15 cells) [%] | percentage survival relative to the missense, n = 1 (A549 cells) [%] | percentage survival relative to the missense, n = 1 (U251 cells) [%] | percentage survival relative to the missense, n = 3 (U251 cells) [%] | percentage survival relative to the missense, n = 1 (A498 cells) [%] | percentage survival relative to the missense, n = 3 (A498 cells) [%] | percentage survival relative to the missense, n = 2 (SKOV3 cells) [%] | percentage survival relative to the missense, n = 3 (SKOV3 cells) [%] | percentage survival relative to the missense, n = 3 (DU145 cells) [%] | percentage survival relative to the missense, n = 3 (A549 cells) [%] | percentage survival relative to the missense, n = 2 (U251 cells) [%] | percentage survival relative to the missense, n = 1 (DU145 cells; independent experiment n = 1, dilution point of maximum toxicity) [%] | percentage survival relative to the missense, n = 2 (DU145 cells) [%] | percentage survival relative to the missense, n = 2 (HCT15 cells) [%] | percentage survival relative to the missense, n = 2 (A549 cells; independent experiment n = 2, dilution point of maximum toxicity) [%]
siRNA PSKH1: sense GAACCUGCACCGCUCCAUAtt, antisense UAUGGAGCGGUGCAGGUUCtt (sense GAACCUGCACCGCUCCAUATT; antisense UAUGGAGCGGUGCAGGUUCTT; chemistry not given here) | 48 | 28.2 | 51.7 | 60.5 | 56.9 | 54.8 | 10 |  |  |  |  |  |  |  |  | 
siRNA P14KB: sense GCUACGGAAGCUGAUCCUCtt, antisense GAGGAUCAGCUUCCGUAGCtt (sense GCUACGGAAGCUGAUCCUCTT; antisense GAGGAUCAGCUUCCGUAGCTT; chemistry not given here) | 12.3 |  |  | 12.3 | 28.3 | 19.3 | 15.1 | 56 | 44.8 | 26.1 | 63.4 | 65 |  |  |  | 
siRNA ROCK: siRNA duplex, sense UACAUGCCUGGUGGAGAUCtt, antisense GAUCUCCACCAGGCAUGUAtt; same in Tables 9 and 11 (sense UACAUGCCUGGUGGAGAUCTT; antisense GAUCUCCACCAGGCAUGUATT; chemistry not given here) | 11.7 | 61.9 | 16.3 | 13.8 | 19.8 | 14.3 | 8.3 | 30.4 | 40.7 |  | 16.8 | 58.2 | 45.6 | 44.4 | 34.6 | 28.4
siRNA MAK: sense GAAGCCAAGCAUGGGUGUUtt, antisense AACACCCAUGCUUGGCUUCtt (sense GAAGCCAAGCAUGGGUGUUTT; antisense AACACCCAUGCUUGGCUUCTT; chemistry not given here) | 25.6 | 75.9 | 51.6 | 11.5 | 58.7 | 19.4 | 51.6 | 40.3 |  | 55.4 | 42.8 | 49.1 |  | 57.2 | 67.3 | 
siRNA GRAF: siRNA duplex, sense GCGGAAGUUUGCAGAUUCCtt, antisense GGAAUCUGCAAACUUCCGCtt; same in Tables 9 and 11 (sense GCGGAAGUUUGCAGAUUCCTT; antisense GGAAUCUGCAAACUUCCGCTT; chemistry not given here) | 82.2 |  |  |  |  | 92.6 | 49.9 |  |  |  |  |  |  |  |  | 
